In ChEMBL document CHEMBL1201862, “PubChem BioAssay data set” (2004):
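Grown in 96-well plates, cells were treated for 48 hours with each compound at five concentrations. Insufficient inhibition: endpoint recorded as highest concentration tested. Here, GI50 denotes the concentration required for 50% inhibition of growth.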 Calls of active or inactive are those of the source. Cut-off read from the data, not from the text of the source: active = GI50 up to about 1.1 µM and inactive = higher.

Experiments:
Test in all cases: NCI-60 cell line screen, 48 h
786-0 = tested on: 786-0
A498 = tested on: A498
A549 = tested on: A549
ACHN = tested on: ACHN
BT-549 = tested on: BT-549
CAKI-1 = tested on: CAKI-1
CCRF-CEM = tested on: CCRF-CEM
COLO 205 = tested on: COLO 205
DU-145 = tested on: DU-145
EKVX = tested on: EKVX
HCC 2998 = tested on: HCC 2998
HCT-116 = tested on: HCT-116
HCT-15 = tested on: HCT-15
HL-60 = tested on: HL-60
HOP-62 = tested on: HOP-62
HT-29 = tested on: HT-29
Hs-578T = tested on: Hs-578T
IGROV-1 = tested on: IGROV-1
K562 = tested on: K562
KM12 = tested on: KM12
LOX IMVI = tested on: LOX IMVI
M14 = tested on: M14
MCF7 = tested on: MCF7
MDA-MB-231 = tested on: MDA-MB-231
MDA-MB-435 = tested on: MDA-MB-435
MDA-N = tested on: MDA-N
MOLT-4 = tested on: MOLT-4
Malme-3M = tested on: Malme-3M
NCI-H226 = tested on: NCI-H226
NCI-H23 = tested on: NCI-H23
NCI-H460 = tested on: NCI-H460
NCI-H522 = tested on: NCI-H522
NCI/ADR-RES = tested on: NCI/ADR-RES
OVCAR-3 = tested on: OVCAR-3
OVCAR-5 = tested on: OVCAR-5
OVCAR-8 = tested on: OVCAR-8
PC-3 = tested on: PC-3
RPMI-8226 = tested on: RPMI-8226
RXF 393 = tested on: RXF 393
SF-268 = tested on: SF-268
SF-295 = tested on: SF-295
SF-539 = tested on: SF-539
SK-MEL-28 = tested on: SK-MEL-28
SK-MEL-2 = tested on: SK-MEL-2
SK-MEL-5 = tested on: SK-MEL-5
SK-OV-3 = tested on: SK-OV-3
SN12C = tested on: SN12C
SNB-19 = tested on: SNB-19
SNB-75 = tested on: SNB-75
SW-620 = tested on: SW-620
T47D = tested on: T47D
TK-10 = tested on: TK-10
U-251 = tested on: U-251
UACC-257 = tested on: UACC-257
UACC-62 = tested on: UACC-62
UO-31 = tested on: UO-31
HOP-92 = tested on: HOP-92
OVCAR-4 = tested on: OVCAR-4

`O=C1C(C(c2ccccc2)N2CCOCC2)=C(O)C(c2ccccc2)N1c1ccccc1` (stereo not drawn) was tested, and the GI50 (786-0) was > 10 µM (inactive), the GI50 (A498) was > 10 µM (inactive) and the GI50 (A549) was > 10 µM (inactive). The GI50 (ACHN) was > 10 µM (inactive), the GI50 (BT-549) was > 10 µM (inactive) and the GI50 (CAKI-1) was > 10 µM (inactive). The GI50 (CCRF-CEM) was > 10 µM (inactive), the GI50 (COLO 205) was > 10 µM (inactive) and the GI50 (DU-145) was > 10 µM (inactive). For the same molecule, the GI50 (EKVX) was > 10 µM (inactive), the GI50 (HCC 2998) was > 10 µM (inactive) and the GI50 (HCT-116) was > 10 µM (inactive). The GI50 (HCT-15) was over 10 µM, the GI50 (HL-60) was > 10 µM (inactive) and the GI50 (HOP-62) was > 10 µM (inactive). The GI50 (HT-29) was > 10 µM (inactive), the GI50 (Hs-578T) was > 10 µM (inactive) and the GI50 (IGROV-1) was > 10 µM (inactive). For the same molecule, the GI50 (K562) was > 10 µM (inactive), the GI50 (KM12) was > 10 µM (inactive) and the GI50 (LOX IMVI) was > 10 µM (inactive). The GI50 (M14) was > 10 µM (inactive), the GI50 (MCF7) was > 10 µM (inactive) and the GI50 (MDA-MB-231) was > 10 µM (inactive). The GI50 (MDA-MB-435) was > 10 µM (inactive), the GI50 (MDA-N) was > 10 µM (inactive) and the GI50 (MOLT-4) was 4.31 µM (inactive). For the same molecule, the GI50 (Malme-3M) was 3.05 µM (inactive), the GI50 (NCI-H226) was > 10 µM (inactive) and the GI50 (NCI-H23) was > 10 µM (inactive). For the same molecule, the GI50 (NCI-H460) was > 10 µM (inactive), the GI50 (NCI-H522) was > 10 µM (inactive) and the GI50 (NCI/ADR-RES) was > 10 µM (inactive). The GI50 (OVCAR-3) was > 10 µM (inactive), the GI50 (OVCAR-5) was > 10 µM (inactive) and the GI50 (OVCAR-8) was > 10 µM (inactive). For the same molecule, the GI50 (PC-3) was > 10 µM (inactive), the GI50 (RPMI-8226) was > 10 µM (inactive) and the GI50 (RXF 393) was > 10 µM (inactive). For the same molecule, the GI50 (SF-268) was > 10 µM (inactive), the GI50 (SF-295) was > 10 µM (inactive) and the GI50 (SF-539) was > 10 µM (inactive). For the same molecule, the GI50 (SK-MEL-28) was > 10 µM (inactive), the GI50 (SK-MEL-2) was > 10 µM (inactive) and the GI50 (SK-MEL-5) was > 10 µM (inactive). For the same molecule, the GI50 (SK-OV-3) was > 10 µM (inactive), the GI50 (SN12C) was > 10 µM (inactive) and the GI50 (SNB-19) was > 10 µM (inactive). The GI50 (SNB-75) was 3.58 µM (inactive), the GI50 (SW-620) was > 10 µM (inactive) and the GI50 (T47D) was > 10 µM (inactive). For the same molecule, the GI50 (TK-10) was > 10 µM (inactive), the GI50 (U-251) was > 10 µM (inactive) and the GI50 (UACC-257) was > 10 µM (inactive). The GI50 (UACC-62) was > 10 µM (inactive) and the GI50 (UO-31) was > 10 µM (inactive).
With `O=c1c(Cc2ccc(Cl)cc2)nnc2sc(-c3ccc(-c4ccc(Cl)cc4Cl)o3)nn12` the GI50 (786-0) was 48 µM (inactive), the GI50 (A498) was 41.5 µM (inactive) and the GI50 (A549) was 80.5 µM (inactive). For the same molecule, the GI50 (ACHN) was 52 µM (inactive), the GI50 (BT-549) was > 100 µM (inactive) and the GI50 (CAKI-1) was 73.5 µM (inactive). For the same molecule, the GI50 (CCRF-CEM) was 61.7 µM (inactive), the GI50 (COLO 205) was 72.3 µM (inactive) and the GI50 (DU-145) was 70 µM (inactive). For the same molecule, the GI50 (EKVX) was 29.4 µM (inactive), the GI50 (HCC 2998) was 49.5 µM (inactive) and the GI50 (HCT-116) was 27.5 µM (inactive). The GI50 (HCT-15) was 41.4 µM, the GI50 (HL-60) was 23.2 µM (inactive) and the GI50 (HOP-62) was 43.2 µM (inactive). For the same molecule, the GI50 (HOP-92) was 38.5 µM (inactive), the GI50 (HT-29) was 64.1 µM (inactive) and the GI50 (Hs-578T) was > 100 µM (inactive). For the same molecule, the GI50 (IGROV-1) was > 100 µM (inactive), the GI50 (K562) was 89.9 µM (inactive) and the GI50 (KM12) was 76.6 µM (inactive). The GI50 (LOX IMVI) was 47.1 µM (inactive), the GI50 (M14) was 95.5 µM (inactive) and the GI50 (MCF7) was 30.5 µM (inactive). For the same molecule, the GI50 (MDA-MB-231) was 93.3 µM (inactive), the GI50 (MDA-MB-435) was 71 µM (inactive) and the GI50 (MDA-N) was 48 µM (inactive). For the same molecule, the GI50 (MOLT-4) was 43.7 µM (inactive), the GI50 (Malme-3M) was > 100 µM (inactive) and the GI50 (NCI-H226) was > 100 µM (inactive). The GI50 (NCI-H23) was 66.5 µM (inactive), the GI50 (NCI-H460) was 59.6 µM (inactive) and the GI50 (NCI-H522) was 52.8 µM (inactive). The GI50 (NCI/ADR-RES) was 80.5 µM (inactive), the GI50 (OVCAR-3) was 34 µM (inactive) and the GI50 (OVCAR-4) was 42.9 µM (inactive). The GI50 (OVCAR-5) was 94.8 µM (inactive), the GI50 (OVCAR-8) was 48.6 µM (inactive) and the GI50 (PC-3) was 79.8 µM (inactive). The GI50 (RPMI-8226) was > 100 µM (inactive), the GI50 (RXF 393) was 53.8 µM (inactive) and the GI50 (SF-268) was > 100 µM (inactive). The GI50 (SF-295) was 83.6 µM (inactive), the GI50 (SF-539) was 85.7 µM (inactive) and the GI50 (SK-MEL-28) was > 100 µM (inactive). For the same molecule, the GI50 (SK-MEL-2) was 36.7 µM (inactive), the GI50 (SK-MEL-5) was > 100 µM (inactive) and the GI50 (SK-OV-3) was > 100 µM (inactive). For the same molecule, the GI50 (SN12C) was 44.6 µM (inactive), the GI50 (SNB-19) was 33.3 µM (inactive) and the GI50 (SW-620) was > 100 µM (inactive). For the same molecule, the GI50 (T47D) was 74.5 µM (inactive), the GI50 (TK-10) was > 100 µM (inactive) and the GI50 (U-251) was 31 µM (inactive). For the same molecule, the GI50 (UACC-257) was > 100 µM (inactive), the GI50 (UACC-62) was 63.1 µM (inactive) and the GI50 (UO-31) was 57.8 µM (inactive).
